16 molecules from PubChem BioAssay (NCI) can be followed below.

Test in all cases: growth of human tumour cells (NCI), 48 h
Assay [1] deals with UACC-257 melanoma.
Assay [2] deals with HOP-62 NSCLC.
In assay [3] the test system is CAKI-1 renal.
Assay [4] deals with LOX IMVI melanoma.
Assay [5] concerns A498 renal.
Assay [6] concerns UO-31 renal.
The subject of assay [7] is HCT-116 colon.
Assay [8] has as its system SK-MEL-28 melanoma.
The subject of assay [9] is NCI/ADR-RES ovarian.
In assay [10] the test system is OVCAR-4 ovarian.

Values joined by “and” are separate entries in the source; they are usually repeats but may differ in a detail not shown here. Equal values may be shown once.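 Results reflect a 48-hour exposure of cells in 96-well plates to compound at five concentrations. Here, GI50 denotes the concentration required for 50% inhibition of growth. The concentration for full growth arrest is given as TGI.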

For the molecule `Cc1cc(Nc2cc(CN3CCOCC3)c3nc(C)c(Cc4ccc(Cl)cc4F)n3n2)n[nH]1`, the GI50 is 3.35 µM in [1]; 1.84 µM in [2]; 1.74 µM in assay [3]; 1.11 µM in assay [4]; 0.288 µM in assay [5]; 1.41 µM in assay [6]. For the same molecule, the GI50 in assay [7] is 0.689 µM; in assay [8] it was 3.5 µM; in assay [9] it was 4.28 µM; in assay [10] it was 2.85 µM. For the same molecule, the TGI in assay [1] amounted to 16.2 µM; in assay [2], 9.49 µM; in [3] it was 4.67 µM; in assay [4], 2.69 µM; in [5] it was 1.1 µM; in assay [6] it was 2.97 µM. The TGI in [7] worked out at 2.65 µM; in [8], 17.2 µM; in assay [9], 18.7 µM; in assay [10] it was 16.7 µM.
Regarding `COc1cc([N+](=O)[O-])c(S(=O)(=O)O)cc1N`, the TGI in assay [1], in assay [2], in assay [3], in [4], in assay [5] and in assay [6] was over 100 µM each time. The TGI in [7], in assay [8], in assay [9] and in assay [10] was over 100 µM in each case.
Take `O=C1c2ccc3c4c(ccc(c24)C(=O)N1CCCNCc1ccccc1)C(=O)N(CCCNCc1ccccc1)C3=O`: the GI50 in assay [1] was 0.199 µM; in [2], 0.232 µM; in assay [3], 0.21 µM; in assay [4], 0.135 µM; in assay [5], 0.951 µM; in assay [6] it was 0.148 µM. For the same molecule, the GI50 in assay [7] was 0.0801 µM; in [8], 0.247 µM; in assay [9], 0.236 µM; in assay [10], 0.119 µM. Moreover, the TGI in assay [1] is 0.386 µM; in assay [2], 0.772 µM; in assay [3] it was 0.588 µM; in assay [4], 0.363 µM; in [5] it was 2.18 µM; in assay [6], 0.364 µM. The TGI in assay [7] is 0.39 µM; in [8], 0.636 µM; in assay [9], 0.779 µM; in [10], 0.248 µM.
For the molecule `COc1cc2cn3c4ccc(O)cc4nc(N)c3c2cc1OC`, the GI50 in assay [1] was 1.39 µM; in assay [2] it was 0.375 µM; in assay [3] it was 0.299 µM; in [4], 0.0621 µM; in [5], 0.141 µM; in assay [6], 0.235 µM. The GI50 in assay [7] was 0.0931 µM; in assay [8] it was 0.0518 µM; in [9], 1.92 µM; in [10], 0.651 µM. Besides, the TGI in assay [1] worked out at 6.94 µM; in assay [2] it was 7.67 µM; in assay [3], 3.22 µM; in assay [4], 1.79 µM; in assay [5], 1.06 µM; in assay [6], 2.48 µM. The TGI in assay [7] came out at 1.72 µM; in assay [8] it was 15.8 µM; in assay [9], 17.3 µM; in assay [10], 12.4 µM.
Turning to `COc1nc2c(cc1S(=O)(=O)c1ccccc1)CCc1c-2cnn1Cc1ccccc1`, the GI50 in [1] is 59.7 µM; in assay [2] it was 17.7 µM; in [3], 5.02 µM; in [4], over 100 µM; in [5], 2.7 µM; in [6], 4.3 µM. Also, the GI50 in assay [7] is 3.8 µM; in assay [8] it was over 100 µM; in [9] it was 9.84 µM; in assay [10], 5.22 µM. The TGI in assay [1], in [2], in assay [3], in assay [4], in assay [5] and in [6] was over 100 µM throughout. Further, the TGI in assay [7], in assay [8], in [9] and in assay [10] was over 100 µM each time.
With `CN(C)CCNC(=O)c1cccc2cc([N+](=O)[O-])ccc12`, the TGI in assay [1] was 0.897 µM; in [2], 4.13 µM and 1.23 µM; in [3] it was 16.4 µM; in assay [5], 4.53 µM and 0.91 µM; in assay [6], 4.6 µM and 1 µM; in assay [8] it was 4.2 µM and 0.977 µM. This molecule also returned a TGI in assay [9] of 5.27 µM. Also, the GI50 was 1.19 µM and 0.224 µM in assay [2]; 0.566 µM and 0.129 µM in assay [4]; 1.19 µM and 0.185 µM in [5]; 1.28 µM and 0.168 µM in assay [6]; 0.513 µM and 0.0724 µM in [7]; 1.83 µM and 0.279 µM in [8]. Moreover, the GI50 in assay [10] is 2.1 µM and 0.311 µM.
For the molecule `COc1cc(-c2nc3ccccc3[nH]2)ccc1OCC(=O)N=Nc1c(O)[nH]c2ccc(Cl)cc12`, the GI50 in assay [1] was 1.91 µM; in assay [2] it was 1.79 µM; in [3], 1.81 µM; in assay [4], 0.337 µM; in assay [5] it was 2.18 µM; in [6], 52.3 µM. For the same molecule, the GI50 was 0.4 µM in assay [7], 1.81 µM in assay [8], over 100 µM in assay [9] and 2.02 µM in [10]. The TGI in assay [1] is 3.78 µM; in assay [2] it was 3.44 µM; in assay [3] it was 3.55 µM; in assay [4], 1.24 µM; in assay [5] it was 5.42 µM; in [6] it was over 100 µM. The TGI is 1.53 µM in assay [7], 3.22 µM in assay [8], over 100 µM in assay [9] and 3.54 µM in [10].
For `Cc1ccc(Nc2[nH]c(C(=O)c3ccc(Cl)cc3)c(N)c2C(=S)Nc2ccccc2)nc1`, the GI50 in assay [1] is 33.3 µM; in assay [2], 35.9 µM; in assay [3], 25.3 µM; in [4], 23 µM; in assay [5] it was 23.4 µM; in assay [6] it was 24.3 µM. For the same molecule, the GI50 in [7] is 42.8 µM; in [8], 55.2 µM; in [9] it was 15.9 µM; in assay [10], 63.6 µM. Also, the TGI in assay [1] was over 100 µM; in assay [2], over 100 µM; in assay [3], 76.4 µM; in assay [4], 53.1 µM; in assay [5], 61.8 µM; in assay [6] it was 86.1 µM. Moreover, the TGI in assay [7] was over 100 µM; in assay [8] it was over 100 µM; in assay [9], 87.7 µM; in [10] it was over 100 µM.
For the molecule `O=c1c2[nH]c3ccccc3c2nc2n1CCS2`, the GI50 is over 100 µM in assay [1]; over 100 µM in assay [2]; 38.7 µM in assay [3]; 54.7 µM in assay [4]; 56 µM in assay [5]; 47.2 µM in assay [6]. In addition, the GI50 in [7], in assay [8], in [9] and in [10] was over 100 µM each time. In addition, the TGI in [1], in assay [2], in assay [3], in assay [4], in assay [5] and in [6] was over 100 µM in each case. Further, the TGI in assay [7], in [8], in [9] and in assay [10] was over 100 µM each time.
On to `CN(C)CCN1C(=O)c2cccc3c(N)ccc(c23)C1=O`, for which the GI50 was 11.2 µM in assay [1]; 22.9 µM in assay [2]; 4.86 µM in [3]; 8.44 µM in [4]; 11.5 µM in assay [5]; 6.76 µM in assay [6]. In addition, the GI50 in assay [7] was 9.49 µM; in assay [8], 11.9 µM; in [9] it was 16.9 µM; in [10], 14.1 µM. The TGI in assay [1] was over 25 µM; in assay [2], over 25 µM; in [3], 15 µM; in assay [4], over 25 µM; in [5], over 25 µM; in [6], over 25 µM. For the same molecule, the TGI in assay [7], in [8], in assay [9] and in [10] was over 25 µM in each case.
For `Cc1coc2c1CC1OC1(C)CCC1OC1(C)C2` (centres undefined), the TGI in assay [1], in assay [2], in assay [3], in assay [4], in assay [5] and in assay [6] was over 100 µM throughout. For the same molecule, the TGI in assay [7], in assay [8], in assay [9] and in assay [10] was over 100 µM each time.
`Cc1c2cnccc2c(C)c2c1c1cc(C(=O)O)ccc1n2C`: the GI50 in [1] is 1.12 µM; in assay [2], 0.642 µM; in assay [3], 0.616 µM; in assay [4], 0.579 µM; in assay [5], 0.41 µM; in assay [6], 0.49 µM. Further, the GI50 in [7] is 0.373 µM; in assay [8], 1.36 µM; in assay [9] it was 0.764 µM; in [10] it was 1.43 µM. The TGI was determined as 4.84 µM in assay [1]; 7.52 µM in assay [2]; 8.34 µM in [3]; 4.18 µM in assay [4]; 2.14 µM in assay [5]; 4.21 µM in assay [6]. Besides, the TGI in assay [7] was over 100 µM; in [8] it was 3.71 µM; in assay [9], 5.5 µM; in assay [10] it was 6.59 µM.
Consider `O=C(CCc1ccco1)NC1CCN(CC2(c3ccc(Cl)cc3)CCC2)CC1`, for which the GI50 is 16.3 µM in [1]; 16.3 µM in assay [2]; 13.3 µM in assay [3]; 13.5 µM in [4]; 0.0318 µM in assay [5]; 7.37 µM in assay [6]. The GI50 is 12.2 µM in assay [7], 15.3 µM in [8], 14.6 µM in [9] and 10.3 µM in assay [10]. The TGI was determined as 31.2 µM in assay [1]; 32.7 µM in assay [2]; 27.2 µM in assay [3]; 27.6 µM in assay [4]; 11.9 µM in [5]; 21.3 µM in assay [6]. Further, the TGI came to 24.5 µM in assay [7], 29.1 µM in [8], 36 µM in assay [9] and 39.2 µM in assay [10].
Take `CC(N)(Cc1c[nH]c2ccccc12)C(=O)O` (centres undefined): the GI50 in assay [1], in assay [2], in [3], in [4], in assay [5] and in assay [6] was over 2500 µM in each case. The GI50 in [7], in assay [8], in assay [9] and in assay [10] was over 2500 µM throughout. The TGI in assay [1], in assay [2], in [3], in [4], in assay [5] and in assay [6] was over 2500 µM in each case. In addition, the TGI in [7], in [8], in [9] and in [10] was over 2500 µM each time.
Turning to `CSC1=Nc2c(c(C)c(-c3ccccc3)n2CCCCl)C2=NC(=O)CN12`, the GI50 in [1] is 12.5 µM; in assay [2] it was 11 µM; in assay [3], 4.6 µM; in [4], 4.13 µM; in [5], 3.89 µM; in assay [6], 10.5 µM. Also, the GI50 is 3.19 µM in assay [7], 10.2 µM in assay [8], 4.29 µM in [9] and 6.74 µM in assay [10]. The TGI in assay [1] worked out at 28.4 µM; in assay [2], 63.1 µM; in assay [3] it was 28.1 µM; in assay [4] it was 17.6 µM; in assay [5] it was 15 µM; in [6], 28.6 µM. The TGI in [7] is 47.7 µM; in assay [8] it was 25.4 µM; in assay [9] it was over 100 µM; in assay [10], 44.9 µM.
Consider `COc1ccc2c(c1)C(=O)c1c-2c(OCCN(C)C)nc2cc(OC)ccc12`, for which the GI50 in assay [1] was 3.19 µM; in assay [2] it was 2.02 µM; in assay [3] it was 2.12 µM; in assay [4] it was 0.751 µM; in assay [5], 1.39 µM; in [6], 1.16 µM. Besides, the GI50 in [7] was 0.344 µM; in [8], 2.08 µM; in assay [9], 0.695 µM; in assay [10], 1.06 µM. Further, the TGI in assay [1] came to 9.96 µM; in assay [2] it was 8.04 µM; in assay [3] it was 11.1 µM; in [4] it was 2.07 µM; in assay [5], 3.07 µM; in assay [6], 2.66 µM. Besides, the TGI is 1.41 µM in assay [7], 4.19 µM in assay [8], 4.2 µM in assay [9] and 2.9 µM in assay [10].
